Experimental data taken from PMC4628894 (Bioorganic & medicinal chemistry letters, 2015).
Where two headings read alike, the source gives them in different places.

Experiments:
human CRF1 receptor = biological target: T1, human CRF1 receptor (Homo sapiens, UniProt P34998); assay type: binding; details: for fold loss of binding affinity at CRF1 relative to 2: compared to compound 2; for fold increase in binding affinity at CRF1 relative to 21: compared to compound 21; for fold gain in binding affinity at CRF1 relative to 17: compared to compound 17
T1 sequence (P34998 24-415): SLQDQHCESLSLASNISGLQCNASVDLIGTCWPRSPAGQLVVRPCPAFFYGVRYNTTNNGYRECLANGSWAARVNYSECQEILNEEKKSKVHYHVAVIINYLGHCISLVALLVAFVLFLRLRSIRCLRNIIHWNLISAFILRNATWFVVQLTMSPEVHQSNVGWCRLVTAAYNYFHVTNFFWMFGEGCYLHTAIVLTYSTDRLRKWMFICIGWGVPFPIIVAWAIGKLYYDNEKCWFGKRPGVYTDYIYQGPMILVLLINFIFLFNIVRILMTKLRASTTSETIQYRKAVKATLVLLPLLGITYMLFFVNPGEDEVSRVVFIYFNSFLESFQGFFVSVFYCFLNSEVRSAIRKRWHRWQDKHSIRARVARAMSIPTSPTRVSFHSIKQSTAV

rat brain CRF1 receptor = details: read-out: IC50, rat brain CRF1 receptor; previous report; cited from earlier work
CRF1 receptor = details: read-out: Ki for the CRF1 receptor, previously reported, cited from earlier work

Row | SMILES | fold increase in binding affinity at CRF1 relative to 21 (human CRF1 receptor) | IC50 (rat brain CRF1 receptor) [nM] | further results
1 | Cc1cc(N(C)C)c2c(n1)N(c1ccc(C(C)C)cc1Br)CC(=O)N2 [Compound 17] | – | – | fold loss of binding affinity at CRF1 relative to 2 (human CRF1 receptor): ~ 75 fold
2 | CCCCN(CC)c1cc(C)nc2c1NC(=O)CN2c1ccc(Cl)cc1Cl [Compound 6] | – | 0.49 | –
3 | Cc1cc(N(C)C)c2c(n1)N(c1ccc(C(C)C)cc1Br)CC(=O)N2CCF [Compound 21] | – | – | fold gain in binding affinity at CRF1 relative to 17 (human CRF1 receptor): ~ 3 fold
4 | CCCCN(CC)c1cc(C)nc2c1NC(=O)CN2c1ccc(OC)cc1C [Compound 9] | – | 0.92 | –
5 | CCN(C)c1cc(C)nc2c1NC(=O)CN2c1ccc(C(C)C)cc1Br [Compound 18] | – | – | fold loss of binding affinity at CRF1 relative to 2 (human CRF1 receptor): ~ 6.8 fold; fold gain in binding affinity at CRF1 relative to 17 (human CRF1 receptor): ~ 11 fold
6 | CCCN(CCC)c1cc(C)nc2c(-c3cnc(N(C)C)cc3C)c(C)nn12 [Compound R121919] | – | – | Ki (CRF1 receptor; ref 26): 3.5 nM; Ki (CRF1 receptor; ref 27): 3 ± 0.16 nM
7 | CCCCN(CC)c1cc(C)nc2c1NC(=O)CN2c1ccc(C(C)C)cc1Br [Compound 2] | – | 0.7 | –

The next lines start with results.

Row | fold increase in binding affinity at CRF1 relative to 21 (human CRF1 receptor) | SMILES | IC50 (rat brain CRF1 receptor) [nM] | further results
8 | ~ 4 fold | Cc1cc(N(C)C)c2c(n1)N(c1ccc(C(C)C)cc1Br)CC(=O)N2C/C=C/CF [Compound 23] | – | –
9 | ~ 2.7 fold | Cc1cc(N(C)C)c2c(n1)N(c1ccc(C(C)C)cc1Br)CC(=O)N2CCCCF [Compound 24] | – | –
10 | ~ 8 fold | CCN(CC)c1cc(C)nc2c1N(CCF)C(=O)CN2c1ccc(C(C)C)cc1Br [Compound 22] | – | –
